Drawing on US10669258B2, “3-sulfonyl-5-aminopyridine-2,4-diol APJ agonists” (BRISTOL-MYERS SQUIBB COMPANY, priority 2016, dated 2020), this text covers EC50 for 28 compounds.

One test concerns the target T1, human APJ receptor (Homo sapiens, UniProt P35414).
T1 construct: expressed in transfected cells; host or cells: HEK293
T1 sequence (P35414 1-380): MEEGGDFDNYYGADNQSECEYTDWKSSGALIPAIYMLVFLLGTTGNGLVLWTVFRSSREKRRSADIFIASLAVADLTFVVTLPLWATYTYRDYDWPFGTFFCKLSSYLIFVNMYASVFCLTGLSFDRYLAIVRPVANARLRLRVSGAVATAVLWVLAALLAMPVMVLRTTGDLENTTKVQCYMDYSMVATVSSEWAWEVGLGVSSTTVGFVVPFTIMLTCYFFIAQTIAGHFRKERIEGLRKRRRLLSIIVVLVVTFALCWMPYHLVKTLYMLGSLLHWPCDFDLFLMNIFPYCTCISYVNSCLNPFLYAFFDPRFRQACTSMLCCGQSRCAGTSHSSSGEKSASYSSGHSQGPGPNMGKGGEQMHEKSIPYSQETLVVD
Description: Intracellular cAMP accumulation assay (APJ hcAMP, HTRF). Type of test: cell-based. Particulars: HEK293 cells stably expressing human APJ receptor; inhibition of forskolin-mediated cAMP production; Table 1; read-out: hAPJ cAMP EC50 Potency range. In outline:
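Inhibition of forskolin (2 μM)-driven cAMP, with […], measured by HTRF after 30 min room-temperature compound exposure of stably transfected HEK293 cells. cAMP read from a standard curve; variable-slope fit gives EC50, and maximal inhibition is normalised to (Pyr1)apelin-13 as 100%.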
(Cyclic AMP is a second messenger, typically raised through Gs and lowered through Gi signalling.)
Turning to `CCCCc1nc(O)c(S(=O)(=O)c2ccc(-c3ccncc3C)cc2)c(O)c1N1CCCOc2ccccc21` [Example 129, 6-butyl-5-(3,4-dihydrobenzo[b][1,4]oxazepin-5(2H)-yl)-3-((4-(3-methylpyridin-4-yl)phenyl)sulfonyl)pyridine-2,4-diol], the EC50 lay within 0.01 to 10 nM.

With `CCN(c1ccccc1)c1c(-c2cnn(C)c2)nc(O)c(S(=O)(=O)c2ccc(-c3ccccc3C(=O)NC)cc2)c1O` [Example 151, 4′-((5-(ethyl(phenyl)amino)-2,4-dihydroxy-6-(1-methyl-1H-pyrazol-4-yl)pyridin-3-yl)sulfonyl)-N-methyl-[1,1′-biphenyl]-2-carboxamide], the EC50 fell in the range of 0.01 to 10 nM.

On to `CCCCc1nc(O)c(S(=O)(=O)c2ccccc2)c(O)c1N(CC)c1ccccc1` [Example 084, 6-butyl-5-(ethyl(phenyl)amino)-3-(phenylsulfonyl)pyridine-2,4-diol], for which the EC50 lay in the range of 10 to 100 nM.

With `CCCCc1nc(O)c(S(=O)(=O)c2ccc(-c3ccccc3)cc2)c(O)c1N(CC)c1ccccc1` [Example 088, 3-([1,1′-biphenyl]-4-ylsulfonyl)-6-butyl-5-(ethyl(phenyl)amino)pyridine-2,4-diol], the EC50 is 10 to 100 nM.

With `CCCCc1nc(O)c(S(=O)(=O)c2ccc(-c3ccnc(F)c3C)cc2)c(O)c1N(CC)c1cccc(C#N)c1` [Example 172, 3-((2-butyl-5-((4-(2-fluoro-3-methylpyridin-4-yl)phenyl)sulfonyl)-4,6-dihydroxypyridin-3-yl)(ethyl)amino)benzonitrile], the EC50 is 0.01 to 10 nM.

With `CCCCc1nc(O)c(S(=O)(=O)c2ccc(-c3ccnc(F)c3C)cc2)c(O)c1N(C)c1ccc(OC)cc1` [Example 038, 6-butyl-3-((4-(2-fluoro-3-methylpyridin-4-yl)phenyl)sulfonyl)-5-((4-methoxyphenyl)(methyl)amino)pyridine-2,4-diol], the EC50 lay in the range of 0.01 to 10 nM.

In the case of `CCCCc1nc(O)c(S(=O)(=O)c2ccc(-n3cc(C)ccc3=O)cc2)c(O)c1N(C)c1ccc(C)cc1` [Example 098, 1-(4-((6-butyl-2,4-dihydroxy-5-(methyl(p-tolyl)amino)pyridin-3-yl)sulfonyl)phenyl)-5-methylpyridin-2(1H)-one], the EC50 was 0.01 to 10 nM.

Regarding `CCCCc1nc(O)c(S(=O)(=O)c2ccc(-c3ccnc(F)c3C)cc2)c(O)c1N1CCCc2ccccc21` [Example 028, 6-butyl-5-(3,4-dihydroquinolin-1(2H)-yl)-3-((4-(2-fluoro-3-methylpyridin-4-yl)phenyl)sulfonyl)pyridine-2,4-diol], the EC50 lay within 0.01 to 10 nM.

Regarding `CCCCc1nc(O)c(S(=O)(=O)c2ccc(-c3ccncc3C)cc2)c(O)c1N(C)c1ccc(OC)cc1` [Example 037, 6-butyl-5-((4-methoxyphenyl)(methyl)amino)-3-((4-(3-methylpyridin-4-yl)phenyl)sulfonyl)pyridine-2,4-diol], the EC50 was 0.01 to 10 nM.

Consider `CCN(c1ccccc1)c1c(-c2ccn(C)n2)nc(O)c(S(=O)(=O)c2ccc(-c3ccnc(F)c3C)cc2)c1O` [Example 063, 5-(ethyl(phenyl)amino)-3-((4-(2-fluoro-3-methylpyridin-4-yl)phenyl)sulfonyl)-6-(1-methyl-1H-pyrazol-3-yl)pyridine-2,4-diol], for which the EC50 fell in the range of 0.01 to 10 nM.

`CCN(c1ccccc1)c1c(-c2cccc(C)c2)nc(O)c(S(=O)(=O)c2ccc(-c3ccccc3C(N)=O)cc2)c1O` [Example 144, 4′-((5-(ethyl(phenyl)amino)-2,4-dihydroxy-6-(m-tolyl)pyridin-3-yl)sulfonyl)-[1,1′-biphenyl]-2-carboxamide]: the EC50 was 0.01 to 10 nM.

For `CCCCc1nc(O)c(S(=O)(=O)c2ccc(-c3ccncc3C)cc2)c(O)c1N(C)c1ccccc1F` [Example 112, 6-butyl-5-((2-fluorophenyl)(methyl)amino)-3-((4-(3-methylpyridin-4-yl)phenyl)sulfonyl)pyridine-2,4-diol], the EC50 fell in the range of 0.01 to 10 nM.

For the compound `CCCCc1nc(O)c(S(=O)(=O)c2ccc(-c3ccccc3C(N)=O)cc2)c(O)c1N(C)c1cccc(C#N)c1` [Example 138, 4′-((6-butyl-5-((3-cyanophenyl)(methyl)amino)-2,4-dihydroxypyridin-3-yl)sulfonyl)-[1,1′-biphenyl]-2-carboxamide], the EC50 was in the range of 0.01 to 10 nM.

Take `CCCCc1nc(O)c(S(=O)(=O)c2ccc(-c3cccnc3C)cc2)c(O)c1N(c1ccccc1)C(C)C` [Example 025, 6-butyl-5-(isopropyl(phenyl)amino)-3-((4-(2-methylpyridin-3-yl)phenyl)sulfonyl)pyridine-2,4-diol]: the EC50 fell in the range of 0.01 to 10 nM.

For `CCCCc1nc(O)c(S(=O)(=O)c2ccc(-c3ccnc(F)c3C)cc2)c(O)c1N(C)c1ccc(C)cc1` [Example 092, 6-butyl-3-((4-(2-fluoro-3-methylpyridin-4-yl)phenyl)sulfonyl)-5-(methyl(p-tolyl)amino)pyridine-2,4-diol], the EC50 lay in the range of 0.01 to 10 nM.

Consider `CCCCc1nc(O)c(S(=O)(=O)c2ccc(-c3ccccc3C(N)=O)cc2)c(O)c1N(C)c1ccccc1C` [Example 195, 4′-((6-butyl-2,4-dihydroxy-5-(methyl(o-tolyl)amino)pyridin-3-yl)sulfonyl)-[1,1′-biphenyl]-2-carboxamide], for which the EC50 lay within 0.01 to 10 nM.

Consider `CCCCc1nc(O)c(S(=O)(=O)c2ccc(-c3cccnc3C)cc2)c(O)c1N(CC)c1cccc(C#N)c1` [Example 175, 3-((2-butyl-4,6-dihydroxy-5-((4-(2-methylpyridin-3-yl)phenyl)sulfonyl)pyri-dine-3-yl)(ethyl)amino)benzonitrile], for which the EC50 is 0.01 to 10 nM.

As for `CCCCc1nc(O)c(S(=O)(=O)c2ccc(-c3ccncc3C)cc2)c(O)c1N(CC)c1cccc(C#N)c1` [Example 170, 3-((2-butyl-4,6-dihydroxy-5-((4-(3-methylpyridin-4-yl)phenyl)sulfonyl)pyri-din-3-yl)(ethyl)amino)benzonitrile], the EC50 lay in the range of 0.01 to 10 nM.

In the case of `CCN(c1ccccc1)c1c(-c2cnn(C)c2)nc(O)c(S(=O)(=O)c2ccc(-c3cccnc3C)cc2)c1O` [Example 150, 5-(ethyl(phenyl)amino)-6-(1-methyl-1H-pyrazol-4-yl)-3-((4-(2-methylpyridin-3-yl)phenyl)sulfonyl)pyri-dine-2,4-diol], the EC50 was in the range of 0.01 to 10 nM.

For `CCCCc1nc(O)c(S(=O)(=O)c2ccc(Br)cc2)c(O)c1N(CC)c1ccccc1` [Example 077, 3-((4-bromophenyl)sulfonyl)-6-butyl-5-(ethyl(phenyl)amino)pyridine-2,4-diol], the EC50 was in the range of 10 to 100 nM.

For the compound `CCCCc1nc(O)c(S(=O)(=O)c2ccc(-c3ccnc(F)c3C)cc2)c(O)c1N(C)c1ccccc1` [Example 011, 6-butyl-3-((4-(2-fluoro-3-methylpyridin-4-yl)phenyl)sulfonyl)-5-(methyl(phenyl)amino)pyridine-2,4-diol], the EC50 fell in the range of 0.01 to 10 nM.

For the compound `CCCCc1nc(O)c(S(=O)(=O)c2ccc(-c3ccccc3C(N)=O)cc2)c(O)c1N1CCCOc2ccccc21` [Example 168, 4′-((6-butyl-5-(3,4-dihydrobenzo[b][1,4]ox-azepin-5(2H)-yl)-2,4-dihydroxypyridin-3-yl)sulfonyl)-[1,1′-biphenyl]-2-carboxamide], the EC50 was in the range of 0.01 to 10 nM.

`CCN(c1cccc(C#N)c1)c1c(-c2ccn(C)n2)nc(O)c(S(=O)(=O)c2ccc(-c3ccccc3C(=O)NC3CC3)cc2)c1O` [Example 218, 4′-((5-((3-cyanophenyl)(ethyl)ami-no)-2,4-dihydroxy-6-(1-methyl-1H-pyrazol-3-yl)pyridin-3-y)sulfonyl)-N-cyclopropyl-[1,1′-biphenyl]-2-carboxamide]: the EC50 was 0.01 to 10 nM.

Staying with this test, now noted: HEK293 cells stably expressing human APJ receptor; inhibition of forskolin-mediated cAMP production; Table 2; read-out: hAPJ cAMP EC50 Potency range.
Turning to `CCN(c1ccccc1)c1c(-c2ccn(C)n2)nc(O)c(C(=O)N2CCC(c3ccccc3F)C2)c1O` (stereo not shown) [Example 205, (5-(ethyl(phenyl)amino)-2,4-dihydroxy-6-(1-methyl-1H-pyrazol-3-yl)pyridin-3-yl)(3-(2-fluorophenyl)pyrrolidin-1-yl)methanone], the EC50 fell in the range of 0.01 to 10 nM.

The same test, now with this note: HEK293 cells stably expressing human APJ receptor; inhibition of forskolin-mediated cAMP production; read-out: Human APJ cAMP Potency range.
On to `CCCCc1nc(O)c(S(=O)(=O)c2ccc(-c3ccc(F)nc3)cc2)c(O)c1N(CC)c1ccccc1` [Example 002, 6-butyl-5-(ethyl(phenyl)amino)-3-((4-(6-fluoropyridin-3-yl)phenyl)sulfonyl)pyridine-2,4-diol], for which the EC50 was 0.01 to 10 nM.

Consider `CCCCc1nc(O)c(S(=O)(=O)c2ccc(-n3cc(C)ccc3=O)cc2)c(O)c1N(CC)c1ccccc1` [Example 003, 1-(4-((6-butyl-5-(ethyl(phenyl)amino)-2,4-dihydroxypyridin-3-yl)sulfonyl)phenyl)-5-methylpyridin-2(1H)-one], for which the EC50 lay within 0.01 to 10 nM.

Staying with this test, now noted: hAPJ cAMP EC50 Potency range, HEK293 cells stably expressing human APJ receptor; inhibition of forskolin-mediated cAMP production; Table 1.
Compound `CCCCc1nc(O)c(C(=O)N2CC[C@@H](c3ccccc3)C2)c(O)c1N(C)c1ccc(OC)cc1` [Example 036, (S)-(6-butyl-2,4-dihydroxy-5-((4-methoxyphenyl)(methyl)amino)pyridin-3-yl)(3-phenylpyrrolidin-1-yl)methanone] gave an EC50 of 10 to 100 nM.

For the compound `CCCCc1nc(O)c(C(=O)N2CC[C@H](c3ccccc3)C2)c(O)c1N(CC)c1ccccc1` [Example 066, (R)-(6-butyl-5-(ethyl(phenyl)amino)-2,4-dihydroxypyridin-3-yl)(3-phenylpyrrolidin-1-yl)methanone], the EC50 was 10 to 100 nM.
